Several values for one entry are separate records, joined by “and”; a condition that tells them apart may be missing. Identical values can stand only once.
Key:
[1] = test system: B16–F10 murine melanoma cells; experiment: MTT cell proliferation assay, B16–F10 cells; type: cell-based; details: Mus musculus, 72 h treatment, untreated control = 100% viability, read-out: IC50, growth inhibition of B16–F10 cells
Procedure: (§1) These studies were performed using a 3-(4,5-dimethylthiazol-2-yl)-2,5-diphenyltetrazolium bromide (MTT) assay, with increasing concentration levels of each compound (0–200 μg/mL). Cell viability was determined after treatment for 72 h, by absorption of a formazan dye.
(§2) […] ATTC HTB-38), Hep G2 human hepatocyte carcinoma cells (ECACC 85011430), nontumor human epithelial lung fibroblast cells HPF (ScienCell catalog (cat.) no. 3300), nontumor rat ileum cells IEC-18 (ECACC no. 88011801), and nontumor human embryo liver cells (ECACC 89121403) were cultured in DMEM medium supplemented with 2 mM glutamine, 10% heat-inactivated fetal bovine serum (FCS), 10.000 units/mL penicillin, and […]. These cells were incubated at 37 °C in an atmosphere of 5% CO2 and 95% humidity. The culture media were changed every 48 h, and the confluent cultures were separated with a trypsin solution (0.25% EDTA). Subconfluent monolayer cells were used in all experiments. All cell lines used were provided by the cell bank of the University of Granada (Spain).
(§3) The effect of the synthesized compounds on the viability of tumor cells was assessed using an MTT assay, based on the ability of living cells to cleave the tetrazolium ring, thus producing formazan, which absorbs at 570 nm. […] For an evaluation of the cytotoxic effects of these compounds, the cells were seeded in 96-well plates at an initial density of 5 × 10^3 B16–F10 cells, 6 × 10^3 HT29 cells, 15 × 10^3 Hep G2 cells, 8 × 10^3 HPF cells, 15 × 10^3 IEC-18 cells, and 11 × 10^3 WRL68 cells, per well. After incubation for 24 h, the cells were treated with the synthesized compounds in triplicate, at different concentrations (0–200 μg/mL), and incubated for 72 h. Thereafter, 100 μL of MTT solution (0.5 mg/mL) were added to each well. After 2 h of incubation, the cells were washed twice with phosphate buffered saline (PBS), and the formazan was resuspended in 100 μL of DMSO. Relative cell viability, with respect to untreated control cells, was measured by absorbance at 550 nm on an ELISA plate reader (Tecan Sunrise MR20-301, TECAN, Austria). […] These experiments were measured and compared to the control after 72 h of treatment.

[2] = test system: HT29 human colon adenocarcinoma cells; experiment: MTT cell proliferation assay, HT29 cells; type: cell-based; details: HT-29, 72 h treatment, untreated control = 100% viability, read-out: IC50, growth inhibition of HT29 cells
Procedure: as §1, §2, §3

[3] = test system: B16–F10 cells; experiment: Annexin V-FITC/PI flow cytometry (apoptosis), B16–F10; type: cell-based, murine; details: B16-F10, 72 h at IC50 concentration, mean ± S.E.M.
Procedure: (§4) In consideration of the cytotoxic results of these triterpene conjugates with the three cell lines assayed, three MA–diamine–coumarin conjugates (1, 4, and 7) and the MA–coumarin conjugate 10 were selected for the following cytometry studies on the three cancer cell lines. Thus, the apoptotic determination assays were performed through double staining with Annexin V (An-V), conjugated fluorescein isothiocyanate (FITC), and propidium iodide (PI). […] The values of percentage of total apoptosis were expressed as means ± SEM of at least two duplicate experiments (Figure 1).
(§5) Apoptosis was assessed by flow cytometry using a FACScan (fluorescence-activated cell sorter) flow cytometer (Coulter Corporation, Hialeah, FL, USA). For these assays, 5 × 10^4 B16–F10, 6 × 10^4 HT29 cells, and 15 × 10^4 Hep G2 cells were placed in 24-well plates with 1.5 mL of medium and incubated for 24 h. Subsequently, the cells were treated with the selected compounds in triplicate for 72 h at their corresponding IC50 concentrations. The cells were collected and resuspended in a binding buffer (10 mM HEPES/NaOH, pH 7.4, 140 mM NaCl, 2.5 mM CaCl2). Annexin V-FITC conjugate (1 mg/mL) was then added and incubated for 15 min at room temperature in darkness. Just before the analysis by flow cytometry, cells were stained with 20 μL of 1 mg/mL PI solution. In each experiment, approximately 10 × 10^3 cells were analyzed, and the experiment was duplicated twice.

[4] = test system: HT29 cells; experiment: Annexin V-FITC/PI flow cytometry (apoptosis), HT29; type: cell-based, human; details: HT29, 72 h at IC50 concentration, mean ± S.E.M.
Procedure: as §4, §5

[5] = test system: Hep G2 cells; experiment: Annexin V-FITC/PI flow cytometry (apoptosis), Hep G2; type: cell-based, human; details: Hep G2, 72 h at IC50 concentration, mean ± S.E.M.
Procedure: as §4, §5

[6] = test system: B16–F10 cells; experiment: Mitochondrial-membrane potential (Rh123) flow cytometry, B16–F10; type: cell-based, murine; details: B16–F10, 72 h at IC50 concentration
Procedure: (§6) The study of the loss of the mitochondrial-membrane potential (MMP) of tumor cells, when treated with drugs, can provide information on the activation mechanism of apoptosis. This activation can occur extrinsically when MMP is not altered, and intrinsically when a loss of this potential is caused by mitochondrial disruption. […] The values of percentage of cell population were expressed as means ± SEM of at least two experiments in duplicate. Changes in MMP were analyzed by monitoring cell fluorescence after staining with rhodamine 123 (Rh123).
(§7) The electrochemical gradient across the mitochondrial membrane was examined by analytical flow cytometry, using dihydrorhodamine (DHR), which in contact with living cells, oxidized to form highly fluorescent rhodamine 123 (Rh123). The fluorescence emitted can be monitored by fluorescence spectroscopy using excitation and emission wavelengths of 500 and 536 nm, respectively. […] Following treatment, the culture medium was renewed with fresh medium by adding 0.5 mL of DHR, for a final concentration of […]. Cells were incubated for 1 h at 37 °C in an atmosphere of 5% CO2 and 95% humidity and subsequently washed and resuspended in PBS. The fluorescence intensity was measured using a FACScan flow cytometer (fluorescence-activated cell sorter). The experiments were performed three times with two replicates per assay.

[7] = test system: Hep G2 cells; experiment: Mitochondrial-membrane potential (Rh123) flow cytometry, Hep G2; type: cell-based, human; details: Hep G2, 72 h at IC50 concentration
Procedure: as §6, §7

IC50 [1] | IC50 [2] | SMILES | Early Apoptosis [3] | Late Apoptosis [3] | Necrosis [3] | Total Apoptosis [3] | Viable Cells [3] | Early Apoptosis [4] | Late Apoptosis [4] | Necrosis [4] | Total Apoptosis [4] | Viable Cells [4] | Early Apoptosis [5] | Late Apoptosis [5] | Necrosis [5] | Total Apoptosis [5] | Viable Cells [5] | Rh123 staining (mitochondrial-membrane potential) [6] | Rh123 staining (mitochondrial-membrane potential) [7]
> 10 µM | > 10 µM | CC1(C)CC[C@]2(C(=O)NCCCNC(=O)c3cc4ccccc4oc3=O)CC[C@]3(C)C(=CC[C@@H]4[C@@]5(C)C[C@@H](O)[C@H](O)C(C)(C)[C@@H]5CC[C@]43C)[C@@H]2C1 [Compound 1, 2α,3β-Dihydroxy-N-(3′-(2″-oxo-2″H-chromene-3″-carboxamido)propyl)olean-12-en-28-amide] | 48.5 ± 2.8% | 19.4 ± 4.2% | 1.7 ± 0.4% | 67.9 ± 1.5% | 30.5 ± 1.9% | 10.8 ± 0.6% | 29.2 ± 0.5% | 3.7 ± 0.9% | 40.0 ± 0.5% | 56.3 ± 1.3% | 50.1 ± 4.5% | 19.4 ± 4.8% | 1.8 ± 0.4% | 69.5 ± 2.3% | 28.8 ± 2.8% | positive Rh123 staining | negative Rh123 staining
> 10 µM | > 10 µM | CC1(C)CC[C@]2(C(=O)NCCCNC(=O)Cc3cc(=O)oc4cc(O)ccc34)CC[C@]3(C)C(=CC[C@@H]4[C@@]5(C)C[C@@H](O)[C@H](O)C(C)(C)[C@@H]5CC[C@]43C)[C@@H]2C1 [Compound 4, 2α,3β-Dihydroxy-N-(3′-(2″-(7‴-hydroxy-2‴-oxo-2‴H-chromen-4‴-yl)acetamido)propyl)olean-12-en-28-amide] | 74.9 ± 2.6% | 10.5 ± 1.4% | 0.7 ± 0.0% | 85.4 ± 3.0% and 85% | 14.0 ± 3.9% | 32.0 ± 2.3% | 20.5 ± 3.0% | 6.2 ± 0.9% | 52.4 ± 3.0% | 41.4 ± 3.8% | 48.5 ± 3.8% | 20.1 ± 5.3% | 1.9 ± 0.2% | 68.5 ± 1.6% | 29.7 ± 1.3% | positive Rh123 staining | negative Rh123 staining
10.4 ± 0.2 µM | 10.9 ± 0.5 µM | CC1(C)CC[C@]2(C(=O)NCCCNC(=O)/C=C/c3ccc(O)cc3)CC[C@]3(C)C(=CC[C@@H]4[C@@]5(C)C[C@@H](O)[C@H](O)C(C)(C)[C@@H]5CC[C@]43C)[C@@H]2C1 [Compound 7, 2α,3β-Dihydroxy-N-(3′-((E)-3″-(4‴-hydroxyphenyl)acrylamido)propyl)olean-12-en-28-amide] | 39.0 ± 4.1% | 18.6 ± 0.1% | 3.1 ± 0.6% | 57.6 ± 3.2% | 39.3 ± 3.5% | 16.2 ± 3.6% | 29.4 ± 1.6% | 1.5 ± 0.4% | 45.6 ± 2.0% | 52.9 ± 2.0% | 57.4 ± 4.3% | 18.6 ± 3.2% | 2.2 ± 0.6% | 75.9 ± 2.0% and 76% | 21.9 ± 1.3% | positive Rh123 staining | 
0.6 µM | 1.1 ± 0.1 µM | CC1(C)CC[C@]2(C(=O)O)CC[C@]3(C)C(=CC[C@@H]4[C@@]5(C)C[C@@H](OC(=O)c6cc7ccccc7oc6=O)[C@H](OC(=O)c6cc7ccccc7oc6=O)C(C)(C)[C@@H]5CC[C@]43C)[C@@H]2C1 [Compound 10] | 18.1 ± 3.0% | 22.9 ± 3.8% | 5.7 ± 0.8% | 41.0 ± 1.7% | 53.4 ± 2.9% | 23.8 ± 4.2% | 34.1 ± 4.9% | 6.5 ± 0.0% | 57.9 ± 1.6% and 58% | 35.7 ± 2.3% | 19.2 ± 4.9% | 21.6 ± 3.2% | 4.2 ± 1.1% | 40.8 ± 3.2% | 55.0 ± 1.4% | positive Rh123 staining | negative Rh123 staining

From publication PMC8476055, “Synthesis and Biological Activity of Triterpene–Coumarin Conjugates” (Journal of Natural Products, 2021)
